In ChEMBL document CHEMBL4190342, “Identifying novel factor XIIa inhibitors with PCA-GA-SVM developed vHTS models” (Eur J Med Chem, 2017):
pIC50: −log10 of the molar value.

Tests used:
Coagulation factor XII [1] = target: T1, Coagulation factor XII (Homo sapiens, UniProt P00748); experiment: Inhibition of human factor 12a using Boc-Gly-Gln-Arg-AMC substrate incubated for 1 hr by fluorescence assay
T1 sequence (P00748 whole entry): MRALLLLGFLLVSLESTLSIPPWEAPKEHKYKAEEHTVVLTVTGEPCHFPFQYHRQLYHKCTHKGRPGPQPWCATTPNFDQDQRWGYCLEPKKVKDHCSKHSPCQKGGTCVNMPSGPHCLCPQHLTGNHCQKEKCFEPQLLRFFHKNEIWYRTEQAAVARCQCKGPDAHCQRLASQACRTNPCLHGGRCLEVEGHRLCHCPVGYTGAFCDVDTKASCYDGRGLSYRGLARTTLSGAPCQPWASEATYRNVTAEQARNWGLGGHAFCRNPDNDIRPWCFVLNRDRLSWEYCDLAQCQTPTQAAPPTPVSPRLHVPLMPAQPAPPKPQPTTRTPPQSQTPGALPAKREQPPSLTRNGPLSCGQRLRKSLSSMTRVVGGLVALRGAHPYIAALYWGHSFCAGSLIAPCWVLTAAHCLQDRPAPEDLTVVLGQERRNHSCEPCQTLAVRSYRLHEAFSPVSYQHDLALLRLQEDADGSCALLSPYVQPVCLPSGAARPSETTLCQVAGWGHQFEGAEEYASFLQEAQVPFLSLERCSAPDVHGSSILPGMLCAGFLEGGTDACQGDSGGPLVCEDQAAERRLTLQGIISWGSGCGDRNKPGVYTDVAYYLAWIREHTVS

Coagulation factor XII [2] = target: T1, Coagulation factor XII; experiment: Inhibition of human factor 12a using Boc-Gly-Gln-Arg-AMC substrate incubated for 1 hr in presence of 0% Tween20 surfactant by fluorescence assay
Coagulation factor XII [3] = target: T1, Coagulation factor XII; experiment: Inhibition of human factor 12a using Boc-Gly-Gln-Arg-AMC substrate incubated for 1 hr in presence of 0.02% Tween20 surfactant by fluorescence assay
Coagulation factor XII [4] = target: T1, Coagulation factor XII; experiment: Inhibition of human factor 12a using Boc-Gly-Gln-Arg-AMC substrate incubated for 1 hr in presence of 0.01% Tween20 surfactant by fluorescence assay

SMILES	pIC50 (Coagulation factor XII [1])	also measured
COc1ccc(/C=C(\C#N)c2nc3ccccc3[nH]2)cc1OC	< 4.30	–
COC(=O)c1ccc(/C=C(\C#N)c2nc3ccc(C)cc3[nH]2)cc1	< 4.30	–
COc1ccc(/C=C(\C#N)c2nc3ccc(C)cc3[nH]2)cc1	< 4.30	–
Cc1ccc2nc(/C(C#N)=C/c3ccccc3)[nH]c2c1	< 4.30	–
COc1cccc(/C=C(\C#N)c2nc3ccccc3[nH]2)c1	< 4.30	–

Now from value to molecule, other results behind:

pIC50 (Coagulation factor XII [1])	SMILES	also measured
< 4.30	Cc1ccc(/C=C(\C#N)c2nc3ccccc3[nH]2)cc1	–
5.14	COc1ccccc1C(=O)n1nnc2ccccc21	–
4.60	COc1cc(OC)cc(C(=O)n2nnc3ccccc32)c1	–
6.17	COc1ccccc1C(=O)n1nc(-c2cccnc2)nc1N	pIC50 (Coagulation factor XII [2]): 5.73; pIC50 (Coagulation factor XII [3]): 5.61; pIC50 (Coagulation factor XII [4]): 5.58
< 4.30	N#C/C(=C\c1ccccc1)c1nc2ccccc2[nH]1	–
4.50	O=C(c1ccc(Cl)cc1)n1nnc2ccccc21	–
6.22	O=C(c1ccc(Br)cc1)n1nnc2ccccc21	–
4.47	O=C(c1ccco1)n1nnc2ccccc21	–
